According to PMC2680961, “Homologous desensitization of signalling by the alpha (α) isoform of the human thromboxane A2 receptor: A specific role for nitric oxide signalling” (Biochimica et Biophysica Acta, 2007):
Positions count from the first letter of the chain named.

Key:
TPα^S331,T337,S340A = target: T1, TPα^S331,T337,S340A (Homo sapiens, UniProt P21731, S331A/S340A/T337A); test: Intracellular calcium mobilization, HEK.TP^S331,T337,S340A cells; format: cell-based; conditions: for Δ[Ca2+]i, U46619-induced: HEK.TP^S331,T337,S340A
T1 construct: expressed in transfected cells
T1 sequence (P21731 1-343 S331A/T337A/S340A): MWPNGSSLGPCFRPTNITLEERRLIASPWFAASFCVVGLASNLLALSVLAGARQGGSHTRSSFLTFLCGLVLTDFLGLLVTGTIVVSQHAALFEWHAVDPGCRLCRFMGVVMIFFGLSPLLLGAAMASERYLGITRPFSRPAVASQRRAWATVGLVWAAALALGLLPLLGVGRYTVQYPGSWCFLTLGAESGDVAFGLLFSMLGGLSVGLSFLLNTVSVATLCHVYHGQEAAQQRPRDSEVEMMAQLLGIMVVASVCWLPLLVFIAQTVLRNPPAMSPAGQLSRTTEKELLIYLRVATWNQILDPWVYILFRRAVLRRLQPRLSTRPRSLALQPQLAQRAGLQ
Description: Measurement of intracellular calcium mobilization ([Ca^2+]i) in FURA2/AM preloaded HEK 293 cell lines (2 × 10^6 cells/dish), each transiently co-transfected with pADVA (10 μg), and pCMV:Gαq (25 μg), was carried out as previously described. To investigate the effect of GRK2/βARK1 on TP-mediated [Ca^2+]i mobilization, HEK.TPα or HEK.TPβ cells (2 × 10^6 cells/dish) were co-transfected with pADVA (10 μg), pCMV:Gαq (25 μg) along with pRK5:βARK1^495–689 (25 μg), encoding a dominant negative form of GRK2/βARK1[39]. Approximately 48 h post-transfection, cells were harvested by scraping, washed twice in ice-cold PBS and resuspended in HBSSHB (modified Ca^2+/Mg^2+-free Hank's buffered salt solution, containing […], pH 7.67, 0.1% bovine serum albumin (BSA)) buffer at 10^7 cells/ml and incubated in the dark with 5 μM FURA2/AM for 45 min at 37 °C. […] For each measurement of [Ca^2+]i mobilization, aliquots of cells were diluted to 0.825 × 10^6 cells/ml in HBSSHB, 1 mM CaCl2 and FURA2 fluorescence was recorded (2 ml aliquots of cells) at 37^ °C with gentle stirring with a Perkin Elmer-Cetus LS50-B spectrofluorometer at excitation wavelengths of 340 nm and 380 nm and emission wavelength of 510 nm, respectively.
Cells were stimulated with the TP agonist U46619 (1 μM) and changes in [Ca^2+]i mobilization were monitored as a function of time. To assess agonist-mediated homologous desensitization, cells (0.825 × 10^6 cells/ml; 2 ml per assay) were stimulated with 1 μM U46619 (Primary stimulation) or, as a control, with the vehicle for 4 min; thereafter, cells were collected by centrifugation (900×g, 5 min); were washed twice in 2 ml HBSSHB, 1 mM CaCl2; and finally resuspended in 2 ml HBSSHB,1 mM CaCl2 and were left to recover over various time intervals (ranging from 0 to 60 min); thereafter, cells re-stimulated with 1 μM U46619 (Secondary stimulation) and changes in [Ca^2+]i mobilization were monitored as a function of time. […]

TPα^T337,S340A = target: T2, TPα^T337,S340A (Homo sapiens, UniProt P21731, S340A/T337A); test: [3H]SQ29,548 radioligand binding, Scatchard analysis, HEK.TPα^T337,S340A
T2 construct: expressed in transfected cells
T2 sequence (P21731 1-343 T337A/S340A): T1 sequence (P21731 1-343 S331A/T337A/S340A) with A331S
Description: Cells were harvested by centrifugation at 500×g at 4 °C for 5 min and washed three times with ice-cold Ca^2+/Mg^2+-free phosphate-buffered saline (PBS). TP radioligand binding assays were carried out at 30 °C for 30 min in 100 μl reactions in the presence of 0–40 nM [^3H] […] Protein determinations were carried out using the Bradford assay.
Radioligand binding and Scatchard analysis data were analysed using GraphPad Prisim V4.0 programme (GraphPad Software Inc., San Diego CA, USA). Statistical analyses were carried out using the unpaired Student's t test using the Statworks Analysis Package. p-values ≤ 0.01 indicated statistically significant differences.

| Compound | Δ[Ca2+]i, U46619-induced (TPα^S331,T337,S340A; primary 1 μM U46619 4 min) [nM] | Δ[Ca2+]i, U46619-induced (TPα^S331,T337,S340A; secondary 1 μM U46619 at 15 min) [nM] | secondary U46619 [Ca2+]i response relative to primary response (TPα^S331,T337,S340A; TPα^S331,T337,S340A) [%] | Bmax (pmol/mg protein ± S.E.M.) (TPα^T337,S340A) [pmol/mg protein] |
| --- | --- | --- | --- | --- |
| CCCCC[C@H](O)/C=C/[C@@H]1[C@@H](C/C=C\CCCC(=O)O)[C@H]2CO[C@@H]1C2 [U46619] | 195 ± 12 | 67 ± 8.2 | ~34 | – |
| O=C(O)CCC/C=C\C[C@@H]1[C@H](CNNC(=O)Nc2ccccc2)[C@H]2CC[C@@H]1O2 [SQ29,548] | – | – | – | 4.9 ± 0.04 |
